In PubChem BioAssay AID330 (DTP/NCI, 2004):
Several values for one entry are separate records, joined by “and”; a condition that tells them apart may be missing. Equal entries are not always repeated. Toxic doses and inconclusive results are not listed. How the source made its calls: active means survival T/C of 150% or more; inactive means T/C below 125% in these data. Square brackets hold non-standard residues; d marks the D form. Peptide text beside a SMILES is read from it. * marks the point of attachment. Ac5c = NC1(C(=O)O)CCCC1; Cbz = O=C(OCc1ccccc1)*; Nva = CCC[CH](N)C(=O)O; Sar = CNCC(=O)O

Test system: P388 leukemia ip, CD2F1 mice, survival T/C
Test: NCI In Vivo Anticancer Drug Screen. Data for tumor model P388 Leukemia (intraperitoneal) in CD2F1 (CDF1) mice
Conditions: endpoint: median survival time, higher = longer survival
Summary of the method: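 Mice carrying the transplanted tumor received test compound or vehicle. Survival was recorded in each group, and the value is the treated-group measurement divided by that of the vehicle-treated control group.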

[1] = dose: 50.0 mg/kg/injection, schedule: Q01DX005 (ip), vehicle: saline with Tween-80
[2] = dose: 100.0 mg/kg/injection, schedule: Q01DX005 (ip), vehicle: saline with Tween-80
[3] = dose: 200.0 mg/kg/injection, schedule: Q01DX005 (ip), vehicle: saline with Tween-80
[4] = dose: 50.0 mg/kg/injection, schedule: Q01DX009 (ip), vehicle: saline with Tween-80
[5] = dose: 100.0 mg/kg/injection, schedule: Q01DX009 (ip), vehicle: saline with Tween-80
[6] = dose: 200.0 mg/kg/injection, schedule: Q01DX009 (ip), vehicle: saline with Tween-80
[7] = dose: 60.0 mg/kg/injection, schedule: Q01DX005 (ip), vehicle: saline with Tween-80
[8] = dose: 120.0 mg/kg/injection, schedule: Q01DX005 (ip), vehicle: saline with Tween-80
[9] = dose: 240.0 mg/kg/injection, schedule: Q01DX005 (ip), vehicle: saline with Tween-80
[10] = dose: 50.0 mg/kg/injection, schedule: Q01DX009 (ip), vehicle: saline
[11] = dose: 100.0 mg/kg/injection, schedule: Q01DX009 (ip), vehicle: saline
[12] = dose: 200.0 mg/kg/injection, schedule: Q01DX009 (ip), vehicle: saline
[13] = dose: 25.0 mg/kg/injection, schedule: Q01DX009 (ip), vehicle: saline
[14] = dose: 25.0 mg/kg/injection, schedule: Q01DX009 (ip), vehicle: Klucel (hydroxypropylcellulose) (HPC)
[15] = dose: 50.0 mg/kg/injection, schedule: Q01DX009 (ip), vehicle: Klucel (hydroxypropylcellulose) (HPC)

Measured: T/C

CC(Oc1cc(Cl)c(Cl)cc1Cl)C(=O)NC(C(=O)O)C(C)C (configuration not stated)
inactive: [1] 97 % of control and 100 % of control | [2] 91 % of control and 106 % of control | [3] 97 % of control and 111 % of control

CCCC(NC(=O)OCc1ccccc1)C(=O)NC(Cc1ccc(O)cc1)C(N)=O (configuration not stated) (Cbz-[Nva]-Tyr-NH2; configuration not given here)
inactive: dose: 50.0 mg/kg/injection, schedule: Q01DX005 (ip), vehicle: Klucel (hydroxypropylcellulose) (HPC) 92 % of control | dose: 100.0 mg/kg/injection, schedule: Q01DX005 (ip), vehicle: Klucel (hydroxypropylcellulose) (HPC) 100 % of control | dose: 200.0 mg/kg/injection, schedule: Q01DX005 (ip), vehicle: Klucel (hydroxypropylcellulose) (HPC) 88 % of control

CCC1(C=O)NC(=O)NC1=O (configuration not stated)
inactive: [1] 91 % of control | [2] 95 % of control | [3] 87 % of control

[O-][n+]1nccnc1N1CCCCC1
inactive: dose: 100.0 mg/kg/injection, schedule: Q04DX002 (ip), vehicle: saline 90 % of control | dose: 200.0 mg/kg/injection, schedule: Q04DX002 (ip), vehicle: saline 98 % of control | dose: 400.0 mg/kg/injection, schedule: Q04DX002 (ip), vehicle: saline 100 % of control

CS(=O)(=O)OCC1CCSC1=O (configuration not stated)
inactive: [4] 100 % of control | [5] 106 % of control | [6] 108 % of control

CC(C)(OC(=O)NC(Cc1cnc[nH]1)C(=O)O)c1ccc(N=Nc2ccccc2)cc1 (configuration not stated)
inactive: [4] 97 % of control | [5] 94 % of control | [6] 97 % of control

Nc1nnc2nc(CC(=O)c3ccccc3[N+](=O)[O-])c(CC(=O)c3ccccc3[N+](=O)[O-])nn12
inactive: [7] 100 % of control | [8] 101 % of control | [9] 100 % of control

COc1cccc2[se]c(C(=O)O)cc12
inactive: [10] 92 % of control | [11] 89 % of control

CNCC(=O)NC1(C(=O)O)CCCC1 (H-[Sar]-[Ac5c]-OH)
inactive: [10] 100 % of control | [11] 94 % of control | [12] 109 % of control

CCN(CC)CCOC(=O)c1ccc(N)cc1
inactive: [10] 98 % of control | [11] 100 % of control

[CH3][Sn]([CH3])([O]S(=O)c1ccc(Cl)cc1)[O]S(=O)c1ccc(Cl)cc1 (configuration not stated)
inactive: dose: 100.0 mg/kg/injection, schedule: Q01DX001 (ip), vehicle: Klucel (hydroxypropylcellulose) (HPC) 114 % of control | dose: 200.0 mg/kg/injection, schedule: Q01DX001 (ip), vehicle: Klucel (hydroxypropylcellulose) (HPC) 105 % of control

COc1cc2c(c(OC)c1OC)-c1ccc(=O)c(OC)cc1[C@@H](N(C)C)CC2
inactive: dose: 2.5 mg/kg/injection, schedule: Q01DX009 (ip), vehicle: Klucel (hydroxypropylcellulose) (HPC) 100 % of control | dose: 5.0 mg/kg/injection, schedule: Q01DX009 (ip), vehicle: Klucel (hydroxypropylcellulose) (HPC) 106 % of control | dose: 10.0 mg/kg/injection, schedule: Q01DX009 (ip), vehicle: Klucel (hydroxypropylcellulose) (HPC) 107 % of control | dose: 20.0 mg/kg/injection, schedule: Q01DX009 (ip), vehicle: Klucel (hydroxypropylcellulose) (HPC) 110 % of control | dose: 40.0 mg/kg/injection, schedule: Q01DX009 (ip), vehicle: Klucel (hydroxypropylcellulose) (HPC) 110 % of control

O=C1c2ccccc2C(=O)N1CCNCCN1C(=O)c2ccccc2C1=O
inactive: [7] 103 % of control | [8] 93 % of control | [9] 93 % of control

O=c1oc2ccccc2c(O)c1C(c1ccc2c(c1)OCO2)N1CCOCC1 (configuration not stated)
inactive: dose: 50.0 mg/kg/injection, schedule: Q01DX005 (ip), vehicle: saline 113 % of control | dose: 100.0 mg/kg/injection, schedule: Q01DX005 (ip), vehicle: saline 110 % of control | dose: 200.0 mg/kg/injection, schedule: Q01DX005 (ip), vehicle: saline 103 % of control

O=C1CCSC(=S)N1c1ccc(Cl)c(C(F)(F)F)c1
inactive: [13] 101 % of control and 91 % of control | [10] 100 % of control and 106 % of control and 107 % of control | [11] 110 % of control and 118 % of control and 98 % of control | [12] 100 % of control and 119 % of control

O=C(Nc1ccccc1)Nc1ccc(OCc2ccccc2)cc1
inactive: [4] 90 % of control | [5] 88 % of control | [6] 114 % of control

COc1c(C(C)C)cc2c(c1OC)C13CCCC(C)(C)C1C(OC3=O)C2NC(=O)CN1CCN(CCO)CC1 (configuration not stated)
inactive: [14] 106 % of control | [15] 97 % of control | dose: 100.0 mg/kg/injection, schedule: Q01DX009 (ip), vehicle: Klucel (hydroxypropylcellulose) (HPC) 88 % of control

COc1cccc(C(c2cc3c(cc2O)OCO3)N2CCOCC2)c1O (configuration not stated)
inactive: [7] 114 % of control (2×) and 116 % of control | [8] 108 % of control and 116 % of control and 122 % of control | [9] 109 % of control and 112 % of control | dose: 480.0 mg/kg/injection, schedule: Q01DX005 (ip), vehicle: saline with Tween-80 118 % of control

CO/C1=C\C(C)=C\C(C)C(O)C(C)C/C(C)=C/C=C/C(OC)C(C(C)C(O)C(C)C(=O)/C=C/C(C)C(C)O)OC1=O (configuration not stated)
inactive: dose: 6.25 mg/kg/injection, schedule: Q01DX005 (ip), vehicle: other 108 % of control | dose: 12.5 mg/kg/injection, schedule: Q01DX005 (ip), vehicle: other 98 % of control | dose: 25.0 mg/kg/injection, schedule: Q01DX005 (ip), vehicle: other 103 % of control | dose: 25.0 mg/kg/injection, schedule: Q01DX005 (ip), vehicle: saline + Tween-80 + alcohol 103 % of control | dose: 50.0 mg/kg/injection, schedule: Q01DX005 (ip), vehicle: other 106 % of control | dose: 50.0 mg/kg/injection, schedule: Q01DX005 (ip), vehicle: saline + Tween-80 + alcohol 94 % of control | dose: 100.0 mg/kg/injection, schedule: Q01DX005 (ip), vehicle: saline + Tween-80 + alcohol 94 % of control

CC(C)(C)N1CCC1C(=O)O (configuration not stated)
inactive: [4] 92 % of control | [5] 94 % of control | [6] 88 % of control | dose: 400.0 mg/kg/injection, schedule: Q01DX009 (ip), vehicle: saline with Tween-80 87 % of control

Cc1ccc(-n2c(O)c(N=Nc3ccc(Br)cc3)c(=O)n(-c3ccc(Br)cc3)c2=S)cc1
inactive: dose: 100.0 mg/kg/injection, schedule: Q04DX002 (ip), vehicle: saline with Tween-80 96 % of control | dose: 200.0 mg/kg/injection, schedule: Q04DX002 (ip), vehicle: saline with Tween-80 99 % of control | dose: 400.0 mg/kg/injection, schedule: Q04DX002 (ip), vehicle: saline with Tween-80 94 % of control

N#Cc1c(N)nc(-c2ccccc2)nc1Nc1ccccc1
inactive: [7] 90 % of control | [8] 104 % of control | [9] 99 % of control

OC(Cc1cncc(CC(O)(C(F)(F)F)C(F)(F)F)n1)(C(F)(F)F)C(F)(F)F
inactive: [10] 99 % of control | [11] 98 % of control | [12] 102 % of control

O=C1CCCc2c1ccn2Cc1ccccc1
inactive: dose: 25.0 mg/kg/injection, schedule: Q04DX003 (ip), vehicle: Klucel (hydroxypropylcellulose) (HPC) 105 % of control | dose: 50.0 mg/kg/injection, schedule: Q04DX003 (ip), vehicle: Klucel (hydroxypropylcellulose) (HPC) 100 % of control | dose: 100.0 mg/kg/injection, schedule: Q04DX003 (ip), vehicle: Klucel (hydroxypropylcellulose) (HPC) 100 % of control | dose: 200.0 mg/kg/injection, schedule: Q04DX003 (ip), vehicle: Klucel (hydroxypropylcellulose) (HPC) 99 % of control

CNC(=O)Nc1ccc(C2(C)SCCS2)cc1
inactive: [7] 97 % of control | [8] 87 % of control | [9] 90 % of control

CC(=O)Oc1ccc[nH]c1=S
inactive: dose: 12.5 mg/kg/injection, schedule: Q01DX009 (ip), vehicle: saline 101 % of control and 103 % of control | [13] 104 % of control and 106 % of control | [10] 99 % of control and 102 % of control | dose: 100.0 mg/kg/injection, schedule: Q01DX008 (ip), vehicle: saline 104 % of control and 106 % of control | [11] 100 % of control and 104 % of control | dose: 200.0 mg/kg/injection, schedule: Q01DX008 (ip), vehicle: saline 105 % of control and 110 % of control | [12] 109 % of control and 113 % of control | dose: 400.0 mg/kg/injection, schedule: Q01DX008 (ip), vehicle: saline 120 % of control | dose: 400.0 mg/kg/injection, schedule: Q01DX009 (ip), vehicle: saline 96 % of control

O=[N+]([O-])c1c(N2CCN(CCO)CC2)nc2ccccn12
inactive: dose: 12.5 mg/kg/injection, schedule: Q01DX009 (ip), vehicle: Klucel (hydroxypropylcellulose) (HPC) 99 % of control | [14] 91 % of control | [15] 105 % of control

CC(=O)OC1CCC2C3CCC4=CC(=O)C(C(O)(C(F)(F)F)C(F)(F)F)CC4(C)C3CCC12C (configuration not stated)
inactive: dose: 100.0 mg/kg/injection, schedule: Q01DX001 (sc), vehicle: steriod suspending solution 100 % of control | dose: 200.0 mg/kg/injection, schedule: Q01DX001 (sc), vehicle: steriod suspending solution 100 % of control | dose: 400.0 mg/kg/injection, schedule: Q01DX001 (sc), vehicle: steriod suspending solution 104 % of control
